# From article PMC2668073, “N- and C-Terminal Domains of the Calcium Binding Protein EhCaBP1 of the Parasite Entamoeba histolytica Display Distinct Functions” (PLoS ONE, 2009)
# Target: T1, EhCaBP1 (Entamoeba histolytica, UniProt P38505)
# T1 construct: gene CaBP1; trimer, Phe site between EF1 and EF2 of neighbouring molecules; C-terminal half without density; strain printed for amoeba culture only
# Assay: X-ray crystal structure of the complex (co-crystallisation)
# Format: binding
# Settings: 2 mM phenylalanine, 10 mM CaCl2 in protein solution; crystals from 63-65% MPD, 5 mM CaCl2, 50 mM acetate pH 4, 16 °C; hydrophobic pocket between EF1 and EF2 of adjacent molecules
# T1 sequence (P38505 whole entry): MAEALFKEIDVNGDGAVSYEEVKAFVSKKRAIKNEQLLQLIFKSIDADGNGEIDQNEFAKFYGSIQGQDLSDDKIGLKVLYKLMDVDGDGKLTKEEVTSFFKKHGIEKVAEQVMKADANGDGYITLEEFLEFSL
smiles,measurement,value
N[C@@H](Cc1ccccc1)C(=O)O [Phenylalanine],X-ray crystal structure of the complex (co-crystallisation),hydrophobic pocket formed at the interface between EF1 and EF2 in the assembled domain
